# According to patent publication US11364248B2 (AMGEN INC., priority 2017, dated 2022):
# Where two headings read alike, the source gives them in different places.
# Key:
# Mcl-1/Bim interaction = Mcl-1/Bim interaction (Homo sapiens (Human), UniProt Q07820); test: Cell Free Mcl-1: Bim Affinity Assay (Mcl-1 HTRF); assay type: binding; conditions: TR-FRET, recombinant human Mcl-1(171-327), biotin-Bim(51-76); read-out: Mel-1 HTRF IC50
# Experimental: Cell Free Mcl-1: Bim Affinity Assay (Mcl-1 HTRF)
# The inhibition of the Mcl-1/Bim interaction was measured using a time-resolved fluorescence resonance energy transfer (TR-FRET) assay. The recombinant human Mcl-1 (C-terminally 6×His tagged Mcl-1 containing residues 171-327) was generated at Amgen Inc (Thousand Oaks, Calif.). A biotinylated peptide derived from human Bim (residues 51-76) was purchased from CPC Scientific (San Jose, Calif.). The TR-FRET assay was conducted in a 384-well white OptiPlate™ (PerkinElmer, Waltham, Mass.) in a total volume of 40 μL. The reaction mixture contained 0.1 nM Mcl-1(171-327), 0.05 nM biotin-Bim(51-76), 0.05 nM LANCER Eu-W1024 Anti-6×His (PerkinElmer), 0.072 nM Streptavidin-Xlent (Cisbio, Bedford, Mass.), and serially diluted test compounds in the binding buffer of 20 mM Hepes, pH 7.5, 150 mM NaCl, 0.016 mM Brij©35, and 1 mM dithiothreitol. Test compounds were pre-incubated with Mcl-1(171-327) and biotin-Bim (51-76) for 60 min before addition of the detection mixture (LANCE Eu-W1024 Anti-6×His and Streptavidin-Xlent). The reaction plates were further incubated overnight and then were read on an Envision® multimode reader (PerkinElmer). Fluorescence signals were measured at 620 nm (40-nm bandwidth) and 665 nm (7.5-nm bandwidth) with a 60 μs delay after excitation at 320 nm (75-nm bandwidth). The signal ratio at 665/620 nm corresponded to the Mcl-1/Bim interaction and was used in all data analyses. The IC50 values of test compounds were determined from duplicate data by analyzing competition curves using a four-parameter sigmoidal model in GraphPad Prism (GraphPad Software, San Diego, Calif.) or in Genedata Screener® (Genedata, Basel, Switzerland).
# OPM-2 = test: Cell Viability Assay (OPM-2 10 FBS); assay type: cell-based, human; conditions: OPM-2 cells, CellTiter-Glo, read-out: OPM-2 10% FBS IC50 IP
# Experimental: Cell Viability Assay (OPM-2 10 FBS)
# The human multiple myeloma cell line, OPM-2, was cultured in complete growth medium containing RPMI 1640 and 10% fetal bovine serum (FBS). Cells were seeded into 384-well plates at 3000 cells/well density in complete growth medium containing 10% FBS, and incubated for 16 h with serially diluted test compounds in a 37° C. incubator with 5% CO2. Cell viability was tested using CellTiter-Glo® assay (Promega, Madison, Wis.) according to the manufacturer recommendations. Luminescence was determined using an EnVision® Multilabel plate reader 25 min after the addition of detection reagent. IC50 values were then calculated with Xlfit using a logistical 4-parameter fit model in GraphPad Prism (GraphPad Software, San Diego, Calif.) or in Genedata Screener® (Genedata, Basel, Switzerland).
# Chain of Mcl-1/Bim interaction (Q07820 171-327): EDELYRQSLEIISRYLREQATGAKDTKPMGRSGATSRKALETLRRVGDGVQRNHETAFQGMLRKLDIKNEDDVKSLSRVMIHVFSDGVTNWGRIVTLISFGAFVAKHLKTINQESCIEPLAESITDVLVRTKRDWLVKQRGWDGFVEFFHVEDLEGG
Structure (SMILES),IC50 (Mcl-1/Bim interaction),IC50 (OPM-2; 16 h),"IC50 (OPM-2; Homo sapiens, OPM-2, 16 h)"
"C[C@@H]1[C@@H](C)CCC[C@@H]([C@H]2OC[C@@H](N(C)C)CO2)[C@@H]2CC[C@H]2CN2C[C@@]3(CCCc4cc(Cl)ccc43)COc3ccc(cc32)C(=O)NS1(=O)=O (relative stereo) [Example 2, (1S,3′R,6′R,7′R,11′S,12′R)-6-CHLORO-7′-(CIS-5-(DIMETHYLAMINO)-1,3-DIOXAN-2-YL)-11′,12′-DIMETHYL-3,4-DIHYDRO-2H,15′H-SPIRO[NAPHTHALENE-1,22′-[20]OXA[13]THIA[1,14]DIAZATETRACYCLO[14.7.2.0˜3,6˜.0˜19,24-]PENTACOSA[16,18,24]TRIEN]-15′-ONE 13′,13′-DIOXIDE]",0.0016 µM,0.367 µM,–
"C[C@@H]1[C@@H](C)CCC[C@@H]([C@H]2OC[C@H](N(C)C)CO2)[C@@H]2CC[C@H]2CN2C[C@@]3(CCCc4cc(Cl)ccc43)COc3ccc(cc32)C(=O)NS1(=O)=O (relative stereo) [Example 6, (1S,3′R,6′R,7′R,11′S,12′R)-6-CHLORO-7′-(TRANS-5-(DIMETHYLAMINO)-1,3-DIOXAN-2-YL)-11′,12′-DIMETHYL-3,4-DIHYDRO-2H,15′H-SPIRO[NAPHTHALENE-1,22′-[20]OXA[13]THIA[1,14]DIAZATETRACYCLO[14.7.2.0˜3,6˜.0˜19,24˜]PENTACOSA[16,18,24]TRIEN]-15′-ONE 13′,13′-DIOXIDE]",0.00209 µM,–,0.557 µM
C[C@@H]1[C@@H](C)CCC[C@H]([C@H]2OC[C@H](N)CO2)[C@@H]2CC[C@H]2CN2C[C@@]3(CCCc4cc(Cl)ccc43)COc3ccc(cc32)C(=O)NS1(=O)=O (relative stereo) [Example 17],0.000645 µM,0.194 µM,–
C[C@@H]1[C@@H](C)CCC[C@H]([C@H]2OC[C@H](N)CO2)[C@@H]2CC[C@H]2CN2C[C@@]3(CCCc4cc(Cl)ccc43)COc3ccc(cc32)C(=O)NS1(=O)=O (relative stereo) [Example 18],0.00137 µM,1.05 µM,–
CN[C@H]1CO[C@@H]([C@H]2CCC[C@H](C)[C@@H](C)S(=O)(=O)NC(=O)c3ccc4c(c3)N(C[C@@H]3CC[C@H]32)C[C@@]2(CCCc3cc(Cl)ccc32)CO4)OC1 (relative stereo) [Example 41],0.00799 µM,7.07 µM,–
CN[C@H]1CO[C@@H]([C@H]2CCC[C@H](C)[C@@H](C)S(=O)(=O)NC(=O)c3ccc4c(c3)N(C[C@@H]3CC[C@H]32)C[C@@]2(CCCc3cc(Cl)ccc32)CO4)OC1 (relative stereo) [Example 42],0.000617 µM,0.217 µM,–
C[C@@H]1[C@@H](C)CCC[C@H]([C@H]2OC[C@H](N3C(=O)c4ccccc4C3=O)CO2)[C@@H]2CC[C@H]2CN2C[C@@]3(CCCc4cc(Cl)ccc43)COc3ccc(cc32)C(=O)NS1(=O)=O (relative stereo) [Example 44],0.00208 µM,> 33.3 µM,–
C[C@@H]1[C@@H](C)CCC[C@H]([C@H]2OC[C@H](N3C(=O)c4ccccc4C3=O)CO2)[C@@H]2CC[C@H]2CN2C[C@@]3(CCCc4cc(Cl)ccc43)COc3ccc(cc32)C(=O)NS1(=O)=O (relative stereo) [Example 45],0.00468 µM,–,–
CCN(C)[C@H]1CO[C@@H]([C@H]2CCC[C@H](C)[C@@H](C)S(=O)(=O)NC(=O)c3ccc4c(c3)N(C[C@@H]3CC[C@H]32)C[C@@]2(CCCc3cc(Cl)ccc32)CO4)OC1 (relative stereo) [Example 46],0.00034 µM,0.047 µM,–
C[C@@H]1[C@@H](C)CCC[C@H]([C@H]2OC[C@@H](N3CC4(COC4)C3)CO2)[C@@H]2CC[C@H]2CN2C[C@@]3(CCCc4cc(Cl)ccc43)COc3ccc(cc32)C(=O)NS1(=O)=O (relative stereo) [Example 59],0.000319 µM,0.09 µM,–
"C[C@@H]1[C@@H](C)CCC[C@H]([C@H]2OC[C@@](CO)(N(C)C)CO2)[C@@H]2CC[C@H]2CN2C[C@@]3(CCCc4cc(Cl)ccc43)COc3ccc(cc32)C(=O)NS1(=O)=O (relative stereo) [Example 81, (1S,3′R,6′R,7′S,11′S,12′R)-6-chloro-7′-(cis-5-(dimethylamino)-5-(hydroxymethyl)-1,3-dioxan-2-yl)-11′,12′-dimethyl-3,4-dihydro-2H,15′H-spiro[naphthalene-1,22′-[20]oxa[13]thia[1,14]diazatetracyclo [14.7.2.0~3,6~.0~19,24~]pentacosa[16,18,24]trien]-15′-one 13′,13′-dioxide]",0.00332 µM,2.54 µM,–
C[C@@H]1[C@@H](C)C/C=C/[C@@H]([C@H]2OC[C@H](N(C)C)CO2)[C@@H]2CC[C@H]2CN2C[C@@]3(CCCc4cc(Cl)ccc43)COc3ccc(cc32)C(=O)NS1(=O)=O (relative stereo) [Example 96],0.000459 µM,0.314 µM,–
C[C@@H]1[C@@H](C)C/C=C/[C@H]([C@H]2OC[C@@H](N(C)C)CO2)[C@@H]2CC[C@H]2CN2C[C@@]3(CCCc4cc(Cl)ccc43)COc3ccc(cc32)C(=O)NS1(=O)=O (relative stereo) [Example 97],0.000308 µM,0.084 µM,–
"CO[C@H]1CO[C@@H]([C@@H]2CCC[C@H](C)[C@@H](C)S(=O)(=O)NC(=O)c3ccc4c(c3)N(C[C@@H]3CC[C@H]32)C[C@@]2(CCCc3cc(Cl)ccc32)CO4)OC1 (single isomer, unassigned) [Example 25]",0.000473 µM,0.903 µM,–
"CO[C@H]1CO[C@@H]([C@@H]2CCC[C@H](C)[C@@H](C)S(=O)(=O)NC(=O)c3ccc4c(c3)N(C[C@@H]3CC[C@H]32)C[C@@]2(CCCc3cc(Cl)ccc32)CO4)OC1 (single isomer, unassigned) [Example 26]",0.00616 µM,14.6 µM,–
"C[C@@H]1[C@@H](C)CCC[C@@H]([C@H]2OC[C@@H](CN(C)C)O2)[C@@H]2CC[C@H]2CN2C[C@@]3(CCCc4cc(Cl)ccc43)COc3ccc(cc32)C(=O)NS1(=O)=O (single isomer, unassigned) [Example 29]",0.000837 µM,0.317 µM,–
"C[C@@H]1[C@@H](C)CCC[C@@H]([C@H]2OC[C@@H](CN(C)C)O2)[C@@H]2CC[C@H]2CN2C[C@@]3(CCCc4cc(Cl)ccc43)COc3ccc(cc32)C(=O)NS1(=O)=O (single isomer, unassigned) [Example 30]",0.00512 µM,2.44 µM,–
"C[C@@H]1[C@@H](C)CCC[C@@H]([C@H]2OC[C@H](CN(C)C)O2)[C@@H]2CC[C@H]2CN2C[C@@]3(CCCc4cc(Cl)ccc43)COc3ccc(cc32)C(=O)NS1(=O)=O (single isomer, unassigned) [Example 33]",0.000612 µM,0.319 µM,–
"C[C@@H]1[C@@H](C)CCC[C@@H]([C@H]2OC[C@H](CN(C)C)O2)[C@@H]2CC[C@H]2CN2C[C@@]3(CCCc4cc(Cl)ccc43)COc3ccc(cc32)C(=O)NS1(=O)=O (single isomer, unassigned) [Example 34]",0.0111 µM,5.83 µM,–
"CC(=O)N1C[C@@H]2O[C@@H]([C@H]3CCC[C@H](C)[C@@H](C)S(=O)(=O)NC(=O)c4ccc5c(c4)N(C[C@@H]4CC[C@H]43)C[C@@]3(CCCc4cc(Cl)ccc43)CO5)O[C@@H]2C1 (single isomer, unassigned) [Example 39]",0.000375 µM,0.578 µM,–
"C[C@@H]1[C@@H](C)CCC[C@@H]([C@H]2OC[C@@H](N3CC(F)C3)CO2)[C@@H]2CC[C@H]2CN2C[C@@]3(CCCc4cc(Cl)ccc43)COc3ccc(cc32)C(=O)NS1(=O)=O (single isomer, unassigned) [Example 50]",0.000492 µM,0.126 µM,–
"C[C@@H]1[C@@H](C)CCC[C@@H]([C@H]2OC[C@@H](N3CC(F)C3)CO2)[C@@H]2CC[C@H]2CN2C[C@@]3(CCCc4cc(Cl)ccc43)COc3ccc(cc32)C(=O)NS1(=O)=O (single isomer, unassigned) [Example 51]",0.000754 µM,1.01 µM,–
"COC[C@@H]1[C@@H](C)CCC[C@H]([C@H]2OC[C@@H](N(C)C)CO2)[C@@H]2CC[C@H]2CN2C[C@@]3(CCCc4cc(Cl)ccc43)COc3ccc(cc32)C(=O)NS1(=O)=O [Example 92, (1S,3′R,6′R,7′S,11′S,12′S)-6-chloro-7′-(cis-5-(dimethylamino)-1,3-dioxan-2-yl)-12′-(methoxymethyl)-11′-methyl-3,4-dihydro-2H,15′H-spiro[naphthalene-1,22′-[20]oxa[13]thia[1,14]diazatetracyclo [14.7.2.0~3,6~.0~19,24~]pentacosa[16,18,24]trien]-15′-one 13′,13′-dioxide]",–,0.988 µM,–
